target: T1, Recombinant HCV polymerase (Hepatitis C virus genotype 1b, UniProt P26663); experiment: biochemical; conditions: inhibition of polymerase-directed transcription; 30 min at 30° C; 30 nM enzyme; cpm data in triplicate
T1 construct: Recombinant HCV polymerase was tested for its ability to perform primer/template-directed transcription
How it was run: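 Primer/template-directed RNA synthesis by 2.5 pmol HCV polymerase on poly(rC)300/biotin-dG12 with 1 μM GTP plus α-32P-GTP, in pH 7.2 Tris buffer with 10 mM MgCl2, for 30 min at 30 °C. Products were filter-captured and counted, with 1% DMSO final. IC50 was fitted from triplicate cpm; percent inhibition was reported where IC50 was impractical.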

T1 sequence (P26663 2420-3010): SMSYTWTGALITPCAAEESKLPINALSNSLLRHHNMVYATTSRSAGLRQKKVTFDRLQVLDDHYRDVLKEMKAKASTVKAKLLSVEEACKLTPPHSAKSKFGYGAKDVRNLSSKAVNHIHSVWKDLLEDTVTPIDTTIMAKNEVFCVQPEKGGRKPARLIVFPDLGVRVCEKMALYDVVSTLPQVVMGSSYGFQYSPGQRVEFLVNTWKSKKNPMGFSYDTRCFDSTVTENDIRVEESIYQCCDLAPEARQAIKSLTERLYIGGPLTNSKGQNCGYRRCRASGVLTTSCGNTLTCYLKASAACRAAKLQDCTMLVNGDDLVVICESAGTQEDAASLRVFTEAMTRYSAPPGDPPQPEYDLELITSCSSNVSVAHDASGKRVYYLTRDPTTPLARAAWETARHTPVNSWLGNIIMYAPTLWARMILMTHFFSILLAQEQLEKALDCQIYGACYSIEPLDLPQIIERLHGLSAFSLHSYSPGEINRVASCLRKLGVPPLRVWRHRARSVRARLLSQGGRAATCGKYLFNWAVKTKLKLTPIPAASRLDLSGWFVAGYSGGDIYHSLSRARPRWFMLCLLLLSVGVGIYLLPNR

**Q.** Which IC50 does the source give for `Cc1cc(C)n2nc(CC3=C(O)CC(CCc4cnn(C(C)C)c4)(C4CCCC4)OC3=O)nc2n1` (centres unmarked) [A(62), 6-Cyclopentyl-3-[(5,7-dimethyl[1,2,4]triazolo[1,5-a]pyrimidin-2-yl)methyl]-4-hydroxy-6-[2-(1-isopropyl-1H-pyrazol-4-yl)ethyl]-5,6-dihydro-2H-pyran-2-one] here?
**A.** Its IC50 is 60 nM.

**Q.** With `CCc1cc(CCC2(C3CCCC3)CC(O)=C(Cc3nc4nc(C)cc(C)n4n3)C(=O)O2)c(OCC2CC2)cc1O` (centres unmarked) [A(32), 6-Cyclopentyl-6-{2-[2-(cyclopropylmethoxy)-5-ethyl-4-hydroxyphenyl]ethyl}-3-[(5,7-dimethyl[1,2,4]triazolo[1,5-a]pyrimidin-2-yl)methyl]-4-hydroxy-5,6-dihydro-2H-pyran-2-one] as the compound, how does the IC50 read?
**A.** Its IC50 is 5 nM.

**Q.** Which IC50 does the source give for `CCc1cc(CCC2(C3CCCC3)CC(=O)CC(=O)O2)ccc1NS(C)(=O)=O` (centres unmarked) [A(105), N-{4-[2-(2-cyclopentyl-4,6-dioxotetrahydro-2H-pyran-2-yl)ethyl]-2-ethylphenyl}methanesulfonamide] here?
**A.** Its IC50 is 250 nM.

**Q.** Which IC50 does the source give for `CCc1cc(CCC2(C3CCCC3)CC(O)=C(Cc3nc4nc(C)cc(C)n4n3)C(=O)O2)c(OCC2CCC2)cc1O` (centres unmarked) [A(60), 6-{2-[2-(Cyclobutylmethoxy)5-ethyl-4-hydroxyphenyl]ethyl}-6-cyclopentyl-3-[(5,7-dimethyl[1,2,4]triazolo[1,5-a]pyrimidin-2-yl)methyl]-4-hydroxy-5,6-dihydro-2H-pyran-2-one] here?
**A.** The IC50 was 3 nM.

**Q.** `Cc1cc(C)n2nc(CC3=C(O)CC(CCc4ccc(C(C)(C)NS(C)(=O)=O)c(F)c4)(C4CCCC4)OC3=O)nc2n1` (centres unmarked) [A(29), N-{1-[4-(2-{2-cyclopentyl-5-[(5,7-dimethyl[1,2,4]triazolo[1,5-a]pyrimidin-2-yl)methyl]-4-hydroxy-6-oxo-3,6-dihydro-2H-pyran-2-yl}ethyl)-2-fluorophenyl]-1-methylethyl}methanesulfonamide] was tested. Which IC50 did it give?
**A.** The IC50 was 17 nM.

**Q.** For `CN(C)c1c(CC2=C(O)CC(CCc3ccc(C(C)(C)C#N)c(F)c3)(C3CCCC3)OC2=O)c(C(F)F)nn1C` (centres unmarked) [Example B(51), 2-{4-[2-(2-Cyclopentyl-5-{[3-(difluoromethyl)-5-(dimethylamino)-1-methyl-1H-pyrazol-4-yl]methyl}-4-hydroxy-6-oxo-3,6-dihydro-2H-pyran-2-yl)ethyl]-2-fluorophenyl}-2-methylpropanenitrile], which IC50 is on record?
**A.** Its IC50 is 24 nM.

**Q.** With `CCc1cc(CCC2(C3CCCC3)CC(O)=C(Cc3nc4nc(C)cc(C)n4n3)C(=O)O2)ccc1CO` (racemic) [B(33), 6-Cyclopentyl-3-[(5,7-dimethyl[1,2,4]triazolo[1,5-a]pyrimidin-2-yl)methyl]-6-{2-[3-ethyl-4-(hydroxymethyl)phenyl]ethyl}-4-hydroxy-5,6-dihydro-2H-pyran-2-one] as the compound, how does the IC50 read?
**A.** The IC50 was 28 nM.

**Q.** `COc1cc(OC)c(CCC2(C3CCCC3)CC(O)=C(Cc3nc(-c4cnccn4)nn3C)C(=O)O2)cc1Cl` (centres unmarked) [B(15), 6-[2-(5-Chloro-2,4-dimethoxyphenyl)ethyl]-6-cyclopentyl-4-hydroxy-3-[(1-methyl-3-pyrazin-2-yl-1H-1,2,4-triazol-5-yl)methyl]-5,6-dihydro-2H-pyran-2-one] was tested. Which IC50 did it give?
**A.** The IC50 was 19 nM.

**Q.** With `Cc1cc(C)n2nc(CC3=C(O)CC(CCc4ccc([C@@H](C)NC(=O)OC(C)(C)C)cc4)(C4CCCC4)OC3=O)nc2n1` (stereo partly drawn) [A(91), tert-Butyl(1R)-1-[4-(2-{2-cyclopentyl-5-[(5,7-dimethyl[1,2,4]triazolo[1,5-a]pyrimidin-2-yl)methyl]-4-hydroxy-6-oxo-3,6-dihydro-2H-pyran-2-yl}ethyl)phenyl]ethylcarbamate] as the compound, how does the IC50 read?
**A.** The IC50 was 160 nM.

**Q.** How did the IC50 turn out when `CCc1cc(CCC2(C3CCCC3)CC(=O)CC(=O)O2)c(OC)cn1` (centres unmarked) [A(2), 6–Cyclopentyl-6-[2-(2-ethyl-5-methoxypyridin-4-yl)ethyl]dihydro-2H-pyran-2,4(3H)-dione] was run?
**A.** The IC50 was 620 nM.

**Q.** For `CCCOc1cc(O)c(CC)cc1CCC1(C2CCCC2)CC(O)=C(Cc2nc3nc(C)cc(C)n3n2)C(=O)O1` (centres unmarked) [A(1), 6Cyclopentyl-3[(5,7-dimethyl[1,2,4]triazolo[1,5-a]pyrimidin-2-yl)methyl]-6-[2-(5-ethyl-4-hydroxy-2-propoxyphenyl)ethyl]-4-hydroxy-5,6dihydro-2H-pyran-2-one], which IC50 is on record?
**A.** Its IC50 is 3 nM.

**Q.** `COc1cnc(C)cc1CCC1(C2CCCC2)CC(O)=C(Cc2nc3nc(C)cc(C)n3n2)C(=O)O1` (centres unmarked) [A(8), 6-Cyclopentyl-3-[(5,7-dimethyl[1,2,4]triazolo[1,5-a]pyrimidin-2-yl)methyl]-4-hydroxy-6-[2-(5methoxy-2-methylpyridin-4-yl)ethyl]-5,6-dihydro-2H-pyran-2-one] was tested. Which IC50 did it give?
**A.** The IC50 was 99 nM.

**Q.** With `CCc1cc(CCC2(C3CCCC3)CC(O)=C(Cc3nc4nc(C)cc(C)n4n3)C(=O)O2)cc(C)n1` (centres unmarked) [A(35), 6-Cyclopentyl-3-[(5,7-dimethyl[1,2,4]triazolo[1,5-a]pyrimidin-2-yl)methyl]-6-[2-(2-ethyl-6-methylpyridin-4-yl)ethyl]-4-hydroxy-5,6-dihydro-2H-pyran-2-one] as the compound, how does the IC50 read?
**A.** Its IC50 is 9 nM.

**Q.** How did the IC50 turn out when `CCc1cc(CCC2(C3CCCC3)CC(O)=C(Cc3nc4ncc(C)cn4n3)C(=O)O2)ccc1CC#N` (centres unmarked) [A(103), [4-(2-{2-cyclopentyl-4-hydroxy-5-[(6-methyl[1,2,4]triazolo[1,5-a]pyrimidin-2-yl)methyl]-6-oxo-3,6-dihydro-2H-pyran-2-yl}ethyl)-2-ethylphenyl]acetonitrile] was run?
**A.** The IC50 was 3 nM.

**Q.** With `CCc1cc(CCC2(C3CCCC3)CC(O)=C(Cc3nc4nc(C)cc(C)n4n3)C(=O)O2)ccc1-c1ncco1` (single isomer, unassigned; enantiomer 2) [A(139), Enantiomer 2 of 6-Cyclopentyl-3-[(5,7-dimethyl[1,2,4]triazolo[1,5-a]pyrimidin-2-yl)methyl]-6-{2-[3-ethyl-4-(1,3-oxazol-2-yl)phenyl]ethyl}-4-hydroxy-5,6-dihydro-2H-pyran-2-one] as the compound, how does the IC50 read?
**A.** Its IC50 is 4 nM.

**Q.** Which IC50 does the source give for `CCCOc1cnc(CC)cc1CCC1(C2CCCC2)CC(O)=C(Cc2nc3ncc(C)cn3n2)C(=O)O1` (centres unmarked) [A(46), 6-Cyclopentyl-6-[2-(2-ethyl-5-propoxypyridin-4-yl)ethyl]-4-hydroxy-3-[(6-methyl[1,2,4]triazolo[1,5-a]pyrimidin-2-yl)methyl]-5,6-dihydro-2H-pyran-2-one] here?
**A.** The IC50 was 6 nM.

**Q.** `CCc1cc(CCC2(C3CCCC3)CC(O)=C(Cc3nc4nc(C)cc(C)n4n3)C(=O)O2)ccc1CNCC1CC1` (centres unmarked) [A(127), 6-Cyclopentyl-6-[2-(4-{[(cyclopropylmethyl)amino]methyl}-3-ethylphenyl)ethyl]-3-[(5,7-dimethyl[1,2,4]triazolo[1,5-a]pyrimidin-2-yl)methyl]-4-hydroxy-5,6-dihydro-2H-pyran-2-one] was tested. Which IC50 did it give?
**A.** Its IC50 is 130 nM.

**Q.** For `CCc1cc(CCC2(C3CCCC3)CC(O)=C(Cc3nc4nc(C)cc(C)n4n3)C(=O)O2)ccc1CO` (single isomer, unassigned; enantiomer 1) [A(114), Enantiomer 1 of 6-cyclopentyl-3-[(5,7-dimethyl[1,2,4]triazolo[1,5-a]pyrimidin-2-yl)methyl]-6-{2-[3-ethyl-4-(hydroxymethyl)phenyl]ethyl}4-hydroxy-5,6dihydro-2H-pyran-2-one], which IC50 is on record?
**A.** Its IC50 is 5 nM.

**Q.** With `O=C1CC(=O)OC(CCc2ccc(S(=O)(=O)C(F)(F)F)cc2)(C2CCCC2)C1` (centres unmarked) [A(66), 6-Cyclopentyl-6-(2-{4[(trifluoromethyl)sulfonyl]phenyl}ethyl)dihydro-2H-pyran-2,4(3H)-dione] as the compound, how does the IC50 read?
**A.** The IC50 was 31000 nM.

**Q.** For `Cc1cc(C)n2nc(CC3=C(O)CC(CCc4ccc(S(C)(=O)=O)c(C(F)(F)F)c4)(C4CCCC4)OC3=O)nc2n1` (centres unmarked) [B(4), 6-Cyclopentyl-3-[(5,7-dimethyl[1,2,4]triazolo[1,5-a]pyrimidin-2-yl)methyl]-4-hydroxy-6-{2-[4-(methylsulfonyl)-3-(trifluoromethyl)phenyl]ethyl}-5,6-dihydro-2H-pyran-2-one], which IC50 is on record?
**A.** The IC50 was 6 nM.

**Q.** How did the IC50 turn out when `CCc1cc(CCC2(C3CCCC3)CC(O)=C(Cc3nc4nc(C)cc(C)n4n3)C(=O)O2)ccc1CCCOC` (centres unmarked) [A(20), 6-Cyclopentyl-3-[(5,7-dimethyl[1,2,4]triazolo[1,5-a]pyrimidin-2-yl)methyl]=6-{2-[3-ethyl-4-(3-methoxypropyl)phenyl]ethyl} -4-hydroxy-5,6-dihydro-2H-pyran-2-one] was run?
**A.** Its IC50 is 9 nM.

**Q.** For `COc1cc(O)c(C(C)=O)cc1CCC1(C2CCCC2)CC(=O)CC(=O)O1` (centres unmarked) [A(99), 6-[2-(5-Acetyl-4-hydroxy-2-methoxyphenyl)ethyl]-6-cyclopentyldihydro-2H-pyran-2,4(3H)-dione], which IC50 is on record?
**A.** Its IC50 is 8400 nM.

**Q.** How did the IC50 turn out when `CCc1cc(CCC2(C3CCCC3)CC(O)=C(Cc3nc4nc(C)cc(C)n4n3)C(=O)O2)c(C)nc1N` (centres unmarked) [A(124), 6-[2-(6-Amino-5-ethyl-2-methylpyridin-3-yl)ethyl]-6-cyclopentyl-3-[(5,7-dimethyl[1,2,4]triazolo[1,5-a]pyrimidin-2-yl)methyl]-4-hydroxy-5,6-dihydro-2H-pyran-2-one] was run?
**A.** Its IC50 is 8 nM.

— patent publication US7151105B2, “Inhibitors of Hepatitis C virus RNA-dependent RNA polymerase, and compositions and treatments using the same” (Agouron Pharmaceuticals, Inc., priority 2004, dated 2006)
